Measurements: patent US9949475B2, “Composition comprising active ingredient, oil and ionic liquid” (priority 2011, dated 2018)
Values after ≈ are worked out from the molar mass of the structure shown. Where two headings read alike, the source gives them in different places.

Experiment: Solubility of UV absorber in oil comprising ionic liquid
Format: physicochemical
Settings: for solubility: 21 °C, thermodynamic from solid, read-out: Solubility of Tinosorb ® S with Cetiol ® B as oil; for Solubility of Uvinul ® T150 with Cetiol ® B as oil: 21° C.
Procedure: For this, increasing amounts of active ingredient were added stepwise to oil (Cetiol® B or Solvesso®), which comprised the ionic liquid, until the maximum solubility was reached. Alternatively, the oil, which comprised the ionic liquid, was saturated with the active ingredient and the soluble fraction of active ingredient was quantified by means of HPLC.

SMILES: CCCCC(CC)COc1ccc(-c2nc(-c3ccc(OC)cc3)nc(-c3ccc(OCC(CC)CCCC)cc3O)n2)c(O)c1 (centres unmarked) [Tinosorb ® S, bis-ethylhexyloxyphenol methoxyphenyl triazine]
- solubility (neat ionic liquid (no oil), organic solvent or mixture, 100 IL (no oil), IL N-butyl-N′-methylimidazolium acetate): 1 mg/mL (≈ 1590 µM)
- solubility (neat ionic liquid (no oil), organic solvent or mixture, 100 IL (no oil), IL N-ethyl-N′-ethylimidazolium heptanoate): 1 mg/mL (≈ 1590 µM)
- solubility (neat ionic liquid (no oil), organic solvent or mixture, 100 IL (no oil), IL N-ethyl-N′-ethylimidazolium octanoate): 1 mg/mL (≈ 1590 µM)
- solubility (neat ionic liquid (no oil), organic solvent or mixture, 100 IL (no oil), IL N-ethyl-N′-methylimidazolium isononanoate): 9.5 mg/mL (≈ 15100 µM)
- solubility (neat oil (no ionic liquid), oil or lipid, 100 Oil (Cetiol B, no IL)): 6.2 mg/mL (≈ 9880 µM)
- solubility (oil/ionic liquid mixture, oil or lipid, Oil/IL 20/80 weight ratio, IL N-butyl-N′-methylimidazolium acetate): 12.4 mg/mL
- solubility (oil/ionic liquid mixture, oil or lipid, Oil/IL 20/80 weight ratio, IL N-ethyl-N′-ethylimidazolium octanoate): 16.7 mg/mL
- solubility (oil/ionic liquid mixture, oil or lipid, Oil/IL 20/80 weight ratio, IL N-ethyl-N′-methylimidazolium isononanoate): 19.2 mg/mL
- solubility (oil/ionic liquid mixture, oil or lipid, Oil/IL 60/40 weight ratio, IL N-butyl-N′-methylimidazolium acetate): 14.3 mg/mL
- solubility (oil/ionic liquid mixture, oil or lipid, Oil/IL 60/40 weight ratio, IL N-ethyl-N′-ethylimidazolium heptanoate): 21.9 mg/mL
- solubility (oil/ionic liquid mixture, oil or lipid, Oil/IL 60/40 weight ratio, IL N-ethyl-N′-ethylimidazolium octanoate): 21.9 mg/mL
- solubility (oil/ionic liquid mixture, oil or lipid, Oil/IL 60/40 weight ratio, IL N-ethyl-N′-methylimidazolium isononanoate): 22.4 mg/mL
- solubility (oil/ionic liquid mixture, oil or lipid, Oil/IL 90/10 weight ratio, IL N-butyl-N′-methylimidazolium acetate): 11.7 mg/mL
- solubility (oil/ionic liquid mixture, oil or lipid, Oil/IL 90/10 weight ratio, IL N-ethyl-N′-ethylimidazolium heptanoate): 13 mg/mL
- solubility (oil/ionic liquid mixture, oil or lipid, Oil/IL 90/10 weight ratio, IL N-ethyl-N′-ethylimidazolium octanoate): 13 mg/mL
- solubility (oil/ionic liquid mixture, oil or lipid, Oil/IL 90/10 weight ratio, IL N-ethyl-N′-methylimidazolium isononanoate): 13.8 mg/mL

SMILES: CCCCC(CC)COC(=O)c1ccc(Nc2nc(Nc3ccc(C(=O)OCC(CC)CCCC)cc3)nc(Nc3ccc(C(=O)OCC(CC)CCCC)cc3)n2)cc1 (centres unmarked) [Uvinul ® T150, 2,4,6-trianilino-p-(carbo-2′-ethylhexyl-1′-oxy)-1,3,5-triazine]
- Solubility of Uvinul ® T150 with Cetiol ® B as oil (100 IL (no oil), IL Cholinium [2-(2-methoxyethoxy)ethoxy]acetate): 1 mg/mL
- Solubility of Uvinul ® T150 with Cetiol ® B as oil (100 IL (no oil), IL N-butyl-N′-methylimidazolium acetate): 5 mg/mL
- Solubility of Uvinul ® T150 with Cetiol ® B as oil (100 IL (no oil), IL N-ethyl-N′-ethylimidazolium propionate): 5 mg/mL
- Solubility of Uvinul ® T150 with Cetiol ® B as oil (100 IL (no oil), IL N-ethyl-N′-methylimidazolium acetate): 1 mg/mL
- Solubility of Uvinul ® T150 with Cetiol ® B as oil (100 IL (no oil), IL N-ethyl-N′-methylimidazolium isononanoate): 1 mg/mL
- Solubility of Uvinul ® T150 with Cetiol ® B as oil (100 Oil (Cetiol B, no IL)): 14.2 mg/mL
- Solubility of Uvinul ® T150 with Cetiol ® B as oil (Oil/IL 20/80 weight ratio, IL N-butyl-N′-methylimidazolium acetate): 41.5 mg/mL
- Solubility of Uvinul ® T150 with Cetiol ® B as oil (Oil/IL 20/80 weight ratio, IL N-ethyl-N′-ethylimidazolium propionate): 44.1 mg/mL
- Solubility of Uvinul ® T150 with Cetiol ® B as oil (Oil/IL 20/80 weight ratio, IL N-ethyl-N′-methylimidazolium acetate): 40.8 mg/mL
- Solubility of Uvinul ® T150 with Cetiol ® B as oil (Oil/IL 20/80 weight ratio, IL N-ethyl-N′-methylimidazolium isononanoate): 34.8 mg/mL
- Solubility of Uvinul ® T150 with Cetiol ® B as oil (Oil/IL 60/40 weight ratio, IL N-butyl-N′-methylimidazolium acetate): 54.1 mg/mL
- Solubility of Uvinul ® T150 with Cetiol ® B as oil (Oil/IL 60/40 weight ratio, IL N-ethyl-N′-ethylimidazolium propionate): 54.3 mg/mL
- Solubility of Uvinul ® T150 with Cetiol ® B as oil (Oil/IL 60/40 weight ratio, IL N-ethyl-N′-methylimidazolium acetate): 52.8 mg/mL
- Solubility of Uvinul ® T150 with Cetiol ® B as oil (Oil/IL 60/40 weight ratio, IL N-ethyl-N′-methylimidazolium isononanoate): 45.7 mg/mL
- Solubility of Uvinul ® T150 with Cetiol ® B as oil (Oil/IL 90/10 weight ratio, IL Cholinium [2-(2-methoxyethoxy)ethoxy]acetate): 21.3 mg/mL
- Solubility of Uvinul ® T150 with Cetiol ® B as oil (Oil/IL 90/10 weight ratio, IL N-butyl-N′-methylimidazolium acetate): 37.5 mg/mL
- Solubility of Uvinul ® T150 with Cetiol ® B as oil (Oil/IL 90/10 weight ratio, IL N-ethyl-N′-ethylimidazolium propionate): 33.3 mg/mL
- Solubility of Uvinul ® T150 with Cetiol ® B as oil (Oil/IL 90/10 weight ratio, IL N-ethyl-N′-methylimidazolium acetate): 37.5 mg/mL
- Solubility of Uvinul ® T150 with Cetiol ® B as oil (Oil/IL 90/10 weight ratio, IL N-ethyl-N′-methylimidazolium isononanoate): 32.4 mg/mL
